Measured values published in ChEMBL document CHEMBL1148540, “Tetrahydrobenzothiophene inhibitors of hepatitis C virus NS5B polymerase” (Bioorg Med Chem Lett, 2006).

Columns and labels:
[1] = Permeability across Caco-2 cell membrane; assay type: ADME, cell-based; details: human, read-out: permeability
[2] = molecular target: T1, RNA-directed RNA polymerase (Hepacivirus hominis, UniProt O39930); assay: Inhibitory activity against HCV 4a NS5B full length RNA dependent RNA polymerase; design: species or system Hepatitis C virus subtype 4a
[3] = molecular target: T1, RNA-directed RNA polymerase; assay: Inhibitory activity against delta-21 C-terminally truncated HCV 1b (BB7 isolate) RNA dependent RNA polymerase; design: species or system Hepatitis C virus subtype 1b

T1 sequence (O39930 whole entry, the tested form may be a part): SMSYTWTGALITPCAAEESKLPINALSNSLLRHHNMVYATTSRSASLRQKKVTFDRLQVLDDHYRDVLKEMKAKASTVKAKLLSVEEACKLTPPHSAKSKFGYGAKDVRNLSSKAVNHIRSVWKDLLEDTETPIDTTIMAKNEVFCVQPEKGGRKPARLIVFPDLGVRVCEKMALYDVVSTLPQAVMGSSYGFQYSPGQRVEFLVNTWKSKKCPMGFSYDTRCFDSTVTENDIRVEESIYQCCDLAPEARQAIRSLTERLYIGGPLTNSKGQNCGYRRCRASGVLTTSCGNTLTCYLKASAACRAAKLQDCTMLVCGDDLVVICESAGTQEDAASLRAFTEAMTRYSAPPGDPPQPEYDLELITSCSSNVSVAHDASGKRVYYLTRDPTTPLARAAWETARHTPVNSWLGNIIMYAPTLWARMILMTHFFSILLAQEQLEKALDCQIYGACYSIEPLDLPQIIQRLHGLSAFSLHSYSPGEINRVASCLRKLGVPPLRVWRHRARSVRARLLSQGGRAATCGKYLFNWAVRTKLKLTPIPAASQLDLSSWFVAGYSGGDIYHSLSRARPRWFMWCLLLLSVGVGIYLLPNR

SMILES | Papp [1] [×10⁻⁶ cm/s] | IC50 [2] [µM] | IC50 [3] [µM]
CCOC(=O)c1c(NC(=O)NS(=O)(=O)c2ccccc2C(F)(F)F)sc2c1CCC(C)(C)C2 | > 3 | 0.05 | 0.2
CCOC(=O)c1c(NC(=O)NS(=O)(=O)c2ccccc2OC(F)(F)F)sc2c1CCC(C)(C)C2 | > 3 | 0.15 | 0.4
CCOC(=O)c1c(NC(=O)NS(=O)(=O)N2CCOCC2)sc2c1CCC(C)(C)C2 |  | 0.3 | 2.5
CCOC(=O)c1c(NC(=O)NS(=O)(=O)c2ccc(C)cc2)sc2c1C(C)CCC2 (centres undefined) |  | 2 | 
CCOC(=O)c1c(NC(=O)NS(=O)(=O)N2CCCCC2)sc2c1CCC(C)(C)C2 |  | 0.2 | 1
CCOC(=O)c1c(NC(=O)NS(=O)(=O)c2ccnn2C)sc2c1CCC(C)(C)C2 | > 3 | 0.05 | 0.26
CCOC(=O)c1c(NC(=O)NS(=O)(=O)N2CCN(C)CC2)sc2c1CCC(C)(C)C2 |  | 0.4 | 2
CCOC(=O)c1c(NC(=O)NS(=O)(=O)N2CCCCCC2)sc2c1CCC(C)(C)C2 |  | 0.5 | 1.1
CCOC(=O)c1c(NC(=O)NS(=O)(=O)c2ccccc2)sc2c1CCC(C)(C)C2 | > 3 | 0.09 | 0.2
CCOC(=O)c1c(NC(=O)NS(=O)(=O)c2ccc(C)cc2)sc2c1CC(C)CC2 (centres undefined) |  | 0.5 | 
CCOC(=O)c1c(NC(=O)NS(=O)(=O)c2nccn2C)sc2c1CCC(C)(C)C2 | > 3 | 0.08 | 0.15
CCOC(=O)c1c(NC(=O)NS(=O)(=O)c2ccc(C)cc2)sc2c1CCCC2 |  | 1 | 
CCOC(=O)c1c(NC(=O)NS(=O)(=O)N2CCCC2)sc2c1CCC(C)(C)C2 |  | 0.2 | 0.4
CCOC(=O)c1c(NC(=O)c2nccnc2C(=O)O)sc2c1CCCC2 |  | 4 | 
CCOC(=O)c1c(NC(=O)NS(=O)(=O)c2cccc(OC)c2)sc2c1CCCC2 |  | 1.2 | 
CCOC(=O)c1c(NC(=O)NS(=O)(=O)c2ccc([N+](=O)[O-])cc2)sc2c1CCCC2 |  | 2.8 | 
CCOC(=O)c1c(NC(=O)NS(C)(=O)=O)sc2c1CCCC2 |  | 3.8 | 

SMILES | Papp [1] [×10⁻⁶ cm/s] | IC50 [2] [µM] | IC50 [3] [µM]
CCOC(=O)c1c(NC(=O)NS(=O)(=O)c2cccc(C)c2)sc2c1CCCC2 |  | 0.9 | 
CCOC(=O)c1c(NC(=O)NS(=O)(=O)c2ccc(C)cn2)sc2c1CCC(C)(C)C2 | > 3 | 0.05 | 0.2
CCOC(=O)c1c(NC(=O)NS(=O)(=O)c2ccccc2)sc2c1CCCC2 |  | 0.7 | 
CCOC(=O)c1c(NC(=O)NS(=O)(=O)N2CCc3ccccc3C2)sc2c1CCC(C)(C)C2 |  | 0.1 | 0.6
CCOC(=O)c1c(NC(=O)NS(=O)(=O)c2ccc(F)cc2)sc2c1CCC(C)(C)C2 | > 3 | 0.06 | 0.5
CCOC(=O)c1c(NC(=O)NS(=O)(=O)N2CCc3ccccc32)sc2c1CCC(C)(C)C2 |  | 0.2 | 0.26
CCOC(=O)c1c(NC(=O)NS(=O)(=O)c2ccc(F)cc2)sc2c1CCCC2 |  | 1.7 | 
CCOC(=O)c1c(NC(=O)NS(=O)(=O)c2ccc(C)cc2)sc2c1CCC(C)(C)C2 | > 3 | 0.09 | 0.4
CCOC(=O)c1c(NC(=O)NS(=O)(=O)c2cccc3ccccc23)sc2c1CCCC2 |  | 0.7 | 
CCOC(=O)c1c(NC(=O)NS(=O)(=O)c2ccccc2C)sc2c1CCCC2 |  | 0.9 | 
CCCCS(=O)(=O)NC(=O)Nc1sc2c(c1C(=O)OCC)CCCC2 |  | 4.9 | 
CCOC(=O)c1c(NC(=O)NS(=O)(=O)c2ccc(C)cc2)sc2c1CCC(C)C2 (centres undefined) |  | 0.2 | 
CCOC(=O)c1c(NC(=O)NS(=O)(=O)c2ncccn2)sc2c1CCC(C)(C)C2 | > 3 | 0.05 | 0.3
CCOC(=O)c1c(NC(=O)NS(=O)(=O)c2ccc(C#N)cc2)sc2c1CCC(C)(C)C2 | > 3 | 0.09 | 0.4
CCOC(=O)c1c(NC(=O)NS(=O)(=O)c2ccc(Cl)cc2)sc2c1CCCC2 |  | 1 | 
CCOC(=O)c1c(NC(=O)NS(=O)(=O)c2ccccn2)sc2c1CCC(C)(C)C2 | > 3 | 0.04 | 0.15
CCOC(=O)c1c(NC(=O)NS(=O)(=O)N2CCN(C(C)=O)CC2)sc2c1CCC(C)(C)C2 |  | 0.3 | 0.6
